Data from US20120122908A1, “Novel C-4 Substituted Retinoids” (University of Maryland, priority 2000, published 2012).
Like-named read-outs stand apart in the source and are kept apart here.

Key:
[1] = target: ATRA 4-hydroxylase (Mesocricetus auratus, UniProt A0A1U7QD41); assay: Hamster liver microsome assay of ATRA metabolism (ATRA 4-hydroxylase inhibition); type: biochemical
Method: Washed hamster liver microsomes were prepared as follows: Livers are removed from sacrificed animals, rinsed in ice-cold 0.9% NaCl solution and homogenized in a 3-fold volume of 0.25 M sucrose-0.05 M Tris-HCl (pH 7.4) using a blender. Microsomes are isolated by differential centrifugation (10,000×g, 20 minutes; 100,000×g, 60 minutes; 4° C.) using a well-known technique (Van Wauwe, J.; Van Nyen, G.; Coene, M-C.; Stoppie, P.; Cols, W.; Goossens, J, Borghgraef, P.; Janssen, P A J, Liarozole, an Inhibitor of Retinoic Acid Metabolism, Exerts Retinoid-Mimetic Effects, In Vivo. J. Pharmacol. Expt. Ther. 261, 773-779, 1992). The microsomes are suspended in PBS buffer (pH 7.4), in 1 ml aliquots and stored at −70° C. until required.
The standard reaction mixture (total of 400 μl) is composed of assay buffer, 140 μl; microsomes, 100 μl ([…]); NADPH, 100 μl ([…]); and a C-4 substituted ATRA analog dissolved in DMSO, 40 μl. After a 3 minute preincubation at 37° C., the reaction is initiated by addition of 20 μl of [11,12-^3H]-ATRA (20 μCi/ml). The incubation is carried out for 30 minutes under oxygen with shaking in a water bath at 37° C. The reaction is stopped by acidification with 0.1 ml formic acid, and the samples are extracted (×2) with EtOAc (2 ml) containing 0.05% butylated hydroxyanisole. The combined organic extracts are evaporated in vacuo, dissolved in 200 μl of the mobile phase for HPLC. An aliquot is analyzed for tritium content by liquid scintillation spectrometry. Usually, >95% of the added radioactivity is recovered. Most of the samples (150 μl) are analyzed on a 10 (m C18 Bondapak column (3.9×300 mm, Millipore), eluted with a multi-linear gradient solvent system: i, MeOH—H2O—HCOOH (60:40:0.05) containing 10 mM ammonium acetate (100 (0%) and ii, MeOH (0 (100%) at 2 ml/min. The radioactivity is measured by an on-line radio-detector. The Rts of ATRA, 4-hydroxy-ATRA and 4-oxo-ATRA are determined by UV absorbance at 350 nm in separate cuvettes. Typically, 80±5% of [11, 12-^3H]ATRA is converted into the metabolites.
The C-4 substituted ATRA analogs are tested at two concentrations, 500 and 1000 nM. IC50 and Ki values are determined.
Incubation of [11,12-^3]ATRA with hamster liver microsomes as described above results in the formation of polar metabolites, including 4-hydroxy-ATRA and 4-oxo-ATRA (see FIG. 7A). […] VN/14-1RA inhibits cytochrome P450-dependent metabolism of ATRA.
Table 2B represents repeated testing of some of the compounds in Table 2A and testing on additional compounds. For comparison, the IC50 values of liarozole and ketoconazole (known inhibitors of ATRA 4-hydroxylase) were also determined.

[2] = test system: LNCaP cells; assay: LNCaP cell growth, compound in combination with ATRA; type: cell-based, human; settings: 10^−8 to 10^−5 M in combination with 10^−5 M ATRA, compared with no drug or ATRA only
Method: LNCaP cells are androgen-dependent cell cultures. PC-3 cells are androgen independent cell culture.
LNCaP cells are transferred into ATRA-free medium 3 days prior to start of experiments. Medium consist of phenol red-free IMEM supplemented with 5% FBS and 1% P/S. Cell are then plated into 24-well culture plates (15000 cells per well) in 1 mL of same medium. After a 24-hour attachment period, the vehicle (ethanol) or ATRA (10^−5 M) alone or ATRA in combination with a novel compound at a range of concentrations are added to triplicate wells. Medium/treatments are changed every 3 days. After 9 days of treatment, cells are removed from the wells with typsin/EDTA and counted in a Coulter counter. Using well-known methods (Wouters W, Van Dun J, Dillen A, Coene M.-C, Cools W and De Coster R, Effects of liarozole, a new antitumoral compound an retinoic acid-induced inhibition of cell growth and on retinoic acid metabolism in MCF-7 breast cancer cells, Cancer Res 52: 2841-2846, 1992), one determines the inhibitory effect of the novel compounds on LNCaP cells grown with ATRA.

[3] = test system: MCF-7Ca tumors; assay: Growth of MCF-7Ca tumors in mice; type: in vivo; settings: 10 mg/kg, after twenty-eight days
Method: FIG. 12. VN/14-1RA inhibition of growth of MCF-7Ca tumors in nude mice.
LNCaP cells are cultured as described above. Subconfluent cell are scraped into DPBS, counted and suspended in Matrigel (3×10^7 cells/mL). Male SCID mice 4-6 weeks old are obtained from NCI, Frederick, Md. Each mouse is inoculated s.c. with 0.1 mL of the cell suspension at two sites. Growth rate are determined from tumor volumes using calipers using well-known techniques (Yue W, Wang J, Savinov A, Brodie A, Effect of aromatase inhibitors on growth of mammary tumors in a nude mouse model, Cancer Res, July 15; 55(14):3073-7 (1995). Tumor volumes are calculated according to the equation: V=4/3×π×r1^2×r2 (r1<r2). Tumors are allowed to grow for 4-5 weeks following cell inoculation. Mice are then grouped (6 mice per group) for castration or treatment with vehicle, liarozole (as a comparison), or one of the C-4 substituted ATRA analogs (at various concentration based on IC50 and/or Ki values for each novel compound, mg/kg/day). The route of administration of C-4 substituted ATRA analogs include s.c., i.m., i.p., and oral. Tumors are measured weekly for 4-5 weeks of treatment and tumor volumes calculated. Blood is collected from the euthanized animals that are autopsied 1 hour after the last injection. Tumors are excised, weighed and stored at −80° C. until required. […]

[4] = test system: PC-3 cells; settings: 9 days, with ATRA (1 nM), FIG. 16
Method: Experiments are conducted on two prostate cancer cell lines, LNCaP cells and PC-3 cells.
This method also is repeated using PC-3 cells.
PC-3 cells were incubated with test compounds for 9 days with medium changes on days 2, 5, and 7 and proliferation assessed as described above.

ATRA 4-hydroxylase, sequence (A0A1U7QD41 entry or part of it): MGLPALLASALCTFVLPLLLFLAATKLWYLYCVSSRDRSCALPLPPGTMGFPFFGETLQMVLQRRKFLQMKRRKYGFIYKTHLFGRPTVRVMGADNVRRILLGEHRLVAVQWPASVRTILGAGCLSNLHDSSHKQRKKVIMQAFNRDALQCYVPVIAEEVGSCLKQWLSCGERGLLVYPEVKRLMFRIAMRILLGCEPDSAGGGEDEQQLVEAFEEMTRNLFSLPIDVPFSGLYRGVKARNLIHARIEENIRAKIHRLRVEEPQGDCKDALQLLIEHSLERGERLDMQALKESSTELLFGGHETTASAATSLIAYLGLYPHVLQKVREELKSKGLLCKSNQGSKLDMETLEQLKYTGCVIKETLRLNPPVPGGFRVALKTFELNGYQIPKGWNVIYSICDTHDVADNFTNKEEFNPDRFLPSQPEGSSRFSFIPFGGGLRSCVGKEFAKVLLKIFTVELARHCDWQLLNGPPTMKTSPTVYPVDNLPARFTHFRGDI

Row | SMILES | microsomal conversion of ATRA to polar metabolites ([1]; 1 μM compound, hamster liver microsomes, FIG. 7B) | IC50 ([1]; hamster liver microsomes, Table 2A, initial testing, read-out: IC50 Value) [nM] | IC50 ([1]; hamster liver microsomes, Table 2B, repeated testing and additional compounds, read-out: IC50 Value, Inhibition of ATRA 4-Hydroxylase) [nM] | inhibition of proliferation of LNCaP cells [2] | size of MCF-7Ca tumors relative to control group [3] | antiproliferative effect on PC-3 cells [4] | fold more potent than liarozole ([1]; ratio of IC50 values, liarozole IC50 6,000 nM)
1 | CC1=C(/C=C/C(C)=C/C=C/C(C)=C/C(=O)O)C(C)(C)CCC1n1ccnc1 (racemic) [VN/14-1, (±)-4-(1H-imidazole-1-yl)retinoic acid] | significantly suppressed | 100 ± 1 | 1.2 ± 0.072 | inhibit the proliferation of LNCaP cells better than no drug or ATRA only | one-half | clearly more effective than liarozole | –
2 | CC(C=CC1=C(C)C(n2ccnc2)CCC1(C)C)=CC=CC(C)=CC(=O)n1ccnc1 (stereo not shown) [VN/50A-1] | – | – | – | – | – | – | 240,000 fold
